Laboratory results as given in the PolyMetriX glass transition set.
± gives the standard deviation of the reports.

SMILES | glass transition temperature
*CCCCCCCCCCCCN1C(=O)c2ccc(-c3ccc(-c4ccc5c(c4)C(=O)N(*)C5=O)cc3)cc2C1=O (repeat unit) | 86.00 °C
*Oc1ccc(Oc2ccc(C(=O)c3cccc(C(=O)c4ccc(*)cc4)c3)cc2)cc1 (repeat unit) | 148.00 °C
*CC(F)(F)C(F)(F)C(F)(F)COC(=O)NCCCCCCNC(=O)O* (repeat unit) | 16.00 °C
*Oc1ccc(C(C)(C)c2ccc(OC(=O)c3ccc(C(*)=O)cc3)c(C(C)CC)c2)cc1C(C)CC (repeat unit) | 90.00 °C
*Oc1ccc(C(C)(C)c2ccc(OC(*)=O)cc2)cc1 (repeat unit) [Poly(bisphenol A carbonate)] | 152.42 ± 6.3 °C
*C(=O)c1ccc2c(c1)C(=O)N(c1ccc(-c3ccc(N4C(=O)c5ccc(*)cc5C4=O)c(C)c3)cc1C)C2=O (repeat unit) | 365.00 °C
*CCCCCCOC(=O)OCCCCCOC(=O)OCCCCCCOc1ccc(Oc2ccc(O*)cc2)cc1 (repeat unit) | -11.00 °C
*CC(*)(C)C(=O)OCCN(CC)c1ccc([N+](=O)[O-])cc1 (repeat unit) | 98.00 °C
*CCC[Si](*)(c1cccc2ccccc12)C1CCCCC1 (repeat unit) | 47.50 °C
*CC(*)OC(=O)c1cccc([Si](C)(C)C)c1 (repeat unit) | 80.00 °C
*CC(*)C(=O)NC(C)C (repeat unit) [Poly(N-isopropyl acrylamide)] | 85.2 ± 56 °C
*c1cccc(Cc2cccc(N3C(=O)c4ccc([Si](C)(C)O[Si](C)(C)c5ccc6c(c5)C(=O)N(*)C6=O)cc4C3=O)c2)c1 (repeat unit) | 217.00 °C
*CCCCCCOC(=O)C(CCCCCCP(=O)(OCC)OCC)C(=O)OCCCCCCOc1ccc(-n2on2-c2ccc(O*)cc2)cc1 (repeat unit) | 9.00 °C
*Nc1ccc(Cc2ccc(NC(=O)c3cc(NC(=O)c4ccc(NC(=O)C(CC(C)C)N5C(=O)c6ccccc6C5=O)cc4)cc(C(*)=O)c3)cc2)cc1 (repeat unit) | 238.00 °C
*CCC(C)S* (repeat unit) | -59.00 °C
*Sc1ccc2c(c1)Sc1ccc(*)cc1S2 (repeat unit) | 209.90 °C
*Oc1ccc(NC(=O)c2ccc(P(=O)(c3ccccc3)c3ccc(C(=O)Nc4ccc(Oc5ccc(P(=O)(c6ccccc6)c6ccc(*)cc6)cc5)cc4)cc3)cc2)cc1 (repeat unit) | 225.00 °C
*CC(C)(C)COC(=O)c1ccc(-c2ccc(-c3ccc(C(=O)O*)cc3)cc2)cc1 (repeat unit) | 100.00 °C
*Cc1ccc(CNC(=O)CC(C)(C)CC(C)C(=O)N*)cc1 (repeat unit) | 125.00 °C
*Oc1c(Cl)cc(C(=C(Cl)Cl)c2cc(Cl)c(OC(*)=O)c(Cl)c2)cc1Cl (repeat unit) | 250.00 °C
*Oc1ccc(CC(NC(=O)CCc2ccc(OC(=O)CCCCCCCCC(*)=O)cc2)C(=O)OC(C)CC)cc1 (repeat unit) | 36.00 °C

SMILES | glass transition temperature
*CCCCCCCNC(=O)CCCCC(=O)N* (repeat unit) | 55.00 °C
*Oc1ccc(Oc2ccc(Oc3ccc(NC(=O)c4cc(C(=O)Nc5ccc(*)cc5)cc(C(C)(C)C)c4)cc3)cc2)cc1 (repeat unit) | 230.00 °C
*O[Si](C)(C)C#C[Si](C)(C)C#C[Si](C)(C)C#C[Si](C)(C)C#C[Si](C)(C)C#C[Si](*)(C)C (repeat unit) | -16.10 °C
*CC(*)C(=O)OC12CC3CC(CC(C3)C1)C2 (repeat unit) | 183.00 °C
*Oc1ccc(N(c2ccc(OC)cc2)c2ccc3ccc(N(c4ccc(*)cc4)c4ccc(OC)cc4)cc3c2)cc1 (repeat unit) | 197.00 °C
*Oc1ccc(C2(c3ccc(Oc4ccc(C(=O)c5ccc(*)cc5)cc4)cc3)c3ccccc3-c3ccccc32)cc1 (repeat unit) | 252.00 °C
*C(=O)c1ccc2c(c1)C(=O)N(c1ccc(-c3c(-c4ccc(-c5ccccc5)cc4)cc(-c4ccc(OCCCCCCOc5ccc(-c6cc(-c7ccc(-c8ccccc8)cc7)c(-c7ccc(N8C(=O)c9ccc(*)cc9C8=O)cc7)c(-c7ccc(-c8ccccc8)cc7)c6)cc5)cc4)cc3-c3ccc(-c4ccccc4)cc3)cc1)C2=O (repeat unit) | 111.50 °C
*C(=O)Nc1cccc(NC(=O)c2cccc(NC(=O)c3ccc(-c4nc5cc(*)ccc5[nH]4)cc3)c2)c1 (repeat unit) | 292.00 °C
*c1ccc(Cc2ccc(N3C(=O)c4ccc(Oc5ccc(Oc6ccc7c(c6)C(=O)N(*)C7=O)cc5)cc4C3=O)cc2)cc1 (repeat unit) | 259.00 °C
*CC(*)(C)c1ccc(C(C)C)cc1 (repeat unit) | 140.00 °C
*CC(COc1ccc(C(C)(C)c2ccc(O*)cc2)cc1)OC(=O)CCl (repeat unit) | 65.00 °C
*CCCCCCCCOc1ccc(/C=C2\CC/C(=C\c3ccc(OCCCCCCCCOP(=O)(O*)OC)c(OC)c3)C2=O)cc1OC (repeat unit) | 73.00 °C
*CCCCCCNC(=O)CCc1ccc(C(C)CC(=O)N*)cc1 (repeat unit) | 77.00 °C
*c1ccc2c(c1)C(=O)N(c1cc(NC(=O)OCCN(CCOC(=O)Nc3cc(N4C(=O)c5ccc(C(*)(C(F)(F)F)C(F)(F)F)cc5C4=O)ccc3C)c3ccc(/N=N/c4ccc([N+](=O)[O-])cc4)cc3)ccc1C)C2=O (repeat unit) | 196.00 °C
*O[Si](*)(C)CCc1cc(C(=O)Oc2ccc(OCCCCCCCCCCCC)cc2)ccc1-c1ccc(C(=O)Oc2ccc(OCCCCCCCCCCCC)cc2)cc1 (repeat unit) | 76.00 °C
*CC(COc1ccc(O*)cc1)OC(C)=O (repeat unit) | 49.00 °C
*OC1C(CO)OC(*)C(O)C1O (repeat unit) | 332.00 °C
*Oc1ccc(OC(=O)Oc2ccc(C(*)=O)cc2)cc1 (repeat unit) | 74.00 °C
*CC(*)(C)C(=O)NC(C)c1ccccc1 (repeat unit) | 156.50 °C
*Oc1cc(Oc2cccc(NC(=O)c3cc(Oc4ccc(C(=O)O)c(C(=O)Nc5cccc(*)c5)c4)ccc3C(=O)O)c2)ccc1C#N (repeat unit) | 195.80 °C
*C1C(*)C2CC1C(C(=O)OCC1CC3CCC1C3)C2C(=O)OCC1CC2CCC1C2 (repeat unit) | 320.00 °C

SMILES | glass transition temperature
*Oc1ccc(NC(=O)c2cc(NC(=O)C34CC5CC(CC(C5)C3)C4)cc(C(=O)Nc3ccc(*)cc3)c2)cc1 (repeat unit) | 335.00 °C
*c1ccc(S(=O)(=O)c2ccc(-n3nccc3-c3ccc(-c4ccnn4*)cc3)cc2)cc1 (repeat unit) | 266.00 °C
*C(=O)Nc1ccc(Oc2ccc(-c3ccc(Oc4ccc(NC(=O)c5ccc6c(c5)C(=O)N(c5ccc(C)c(N7C(=O)c8ccc(*)cc8C7=O)c5)C6=O)cc4)cc3)cc2)cc1 (repeat unit) | 299.00 °C
*Nc1ccc(Cc2ccc(NC(=O)c3cc(NC(=O)CCN4C(=O)c5ccccc5C4=O)cc(C(*)=O)c3)cc2)cc1 (repeat unit) | 235.00 °C
*Oc1ccc(C(=O)Nc2ccc(Cc3ccc(NC(=O)c4ccc(Oc5ccc(C(=O)c6ccc(S(=O)(=O)c7ccc(C(=O)c8ccc(*)cc8)cc7)cc6)cc5)cc4)cc3)cc2)cc1 (repeat unit) | 240.00 °C
*CC(*)(C)C(=O)Oc1ccc(/N=N/c2ccc(C#N)cc2)cc1 (repeat unit) | 185.00 °C
*Oc1ccc(S(=O)(=O)c2ccc(Oc3ccc(P(=O)(c4ccccc4)c4ccc(*)cc4)cc3)cc2)cc1 (repeat unit) | 231.00 °C
*Oc1ccc(NC(=O)Nc2cc(NC(=O)Nc3ccc(*)c(-c4ccc(Oc5ccccc5)cc4)c3)ccc2C)cc1-c1ccc(Oc2ccccc2)cc1 (repeat unit) | 279.00 °C
*CC(F)(F)C(F)(F)C(F)(F)COC(=O)c1cc(C(=O)O*)cc(C(F)(F)C(F)(F)C(F)(F)C(F)(F)C(F)(F)C(F)(F)C(F)(F)F)c1 (repeat unit) | 27.00 °C
*c1ccc2c(c1)C(=O)N(c1ccc(C(=O)Nc3ccc(Oc4cccc(Oc5ccc(NC(=O)c6ccc(N7C(=O)c8ccc(C(*)(C(F)(F)F)C(F)(F)F)cc8C7=O)cc6)cc5)c4)cc3)cc1)C2=O (repeat unit) | 286.00 °C
*CC(*)(C)C(=O)OCCCCCC(=O)Oc1ccc(OC(=O)c2ccc(OCCCCC)cc2)cc1 (repeat unit) | 50.00 °C
*CC(COCOCC(C)([N+](=O)[O-])[N+](=O)[O-])O* (repeat unit) | -15.00 °C
*CC(O)CN(CC(O)COc1ccc(C(C)(C)c2ccc(O*)cc2)cc1)c1ccc(/C=C/c2ccc([N+](=O)[O-])cc2)cc1 (repeat unit) | 320.00 °C
*C(=O)c1ccc(Oc2ccc(-c3ccc(Oc4ccc(C(=O)c5ccc6c(c5)C(=O)N(c5ccc(N7C(=O)c8ccc(*)cc8C7=O)cc5)C6=O)cc4)cc3)cc2)cc1 (repeat unit) | 229.00 °C
*N=P(*)(C)CCCC (repeat unit) | -51.00 °C
*Oc1ccc2cc(OC(=O)c3cccc(Oc4ccc(Oc5cccc(C(*)=O)c5)cc4)c3)ccc2c1 (repeat unit) | 125.00 °C
*c1ccc(Oc2cc3ccccc3cc2Oc2ccc(N3C(=O)c4ccc(Oc5cc6ccccc6cc5Oc5ccc6c(c5)C(=O)N(*)C6=O)cc4C3=O)cc2)cc1 (repeat unit) | 222.00 °C
*CC(=O)Nc1ccc(Oc2ccc(Oc3ccc(NC(=O)CN4C(=O)c5ccc(C(c6ccc7c(c6)C(=O)N(*)C7=O)(C(F)(F)F)C(F)(F)F)cc5C4=O)cc3)cc2)cc1 (repeat unit) | 242.00 °C
*CC(CO)(CCl)COc1ccc(C(c2ccc(O*)cc2)(C(F)(F)F)C(F)(F)F)cc1 (repeat unit) | 107.00 °C
*Oc1ccc(C(c2ccc(Oc3ccc(C(=O)c4c(C(=O)c5ccc(*)cc5)c(-c5ccccc5)c(-c5ccc6ccccc6c5)c(-c5ccc6ccccc6c5)c4-c4ccccc4)cc3)cc2)(C(F)(F)F)C(F)(F)F)cc1 (repeat unit) | 275.00 °C
